Reference: ChEMBL document CHEMBL3046568, “Synthesis, antimicrobial and DNA cleavage studies of some 4-aryloxymethylcoumarins obtained by reaction of 4-bromomethylcoumarins with bidentate nucleophiles” (2012)
Values after ≈ are worked out from the molar mass of the structure shown. Active and inactive are the calls of the source. The rule behind the calls is not given here.

How the values were obtained:
[1] = tested on: Candida albicans; test: Antifungal activity against Candida albicans after 3 to 4 days by serial dilution method; type: functional; conditions: for MIC: Candida albicans
[2] = tested on: Escherichia coli; test: Induction of Escherichia coli MTCC 1089 DNA cleavage at 50 ug after 2 hr by agarose gel electrophoresis
[3] = tested on: Staphylococcus aureus; test: Induction of Staphylococcus aureus MTCC 3160 DNA cleavage at 50 ug after 2 hr by agarose gel electrophoresis
[4] = tested on: Fusarium oxysporum; test: Antifungal activity against Fusarium oxysporum after 3 to 4 days by serial dilution method; type: functional; conditions: for MIC: Fusarium oxysporum
[5] = tested on: Mucor fuscus; test: Antifungal activity against Mucor fuscus after 3 to 4 days by serial dilution method; type: functional; conditions: for MIC: Mucor fuscus
[6] = tested on: Pseudomonas aeruginosa; test: Antibacterial activity against Pseudomonas aeruginosa MTCC 1034 after 24 hr by disk diffusion method; type: functional; conditions: for MIC: Pseudomonas aeruginosa, MTCC 1034, 24 h
[7] = tested on: Staphylococcus aureus; test: Antibacterial activity against Staphylococcus aureus MTCC 3160 after 24 hr by disk diffusion method; type: functional; conditions: for MIC: Staphylococcus aureus, MTCC 3160, 24 h
[8] = tested on: Aspergillus fumigatus; test: Antifungal activity against Aspergillus fumigatus after 3 to 4 days by serial dilution method; type: functional; conditions: for MIC: Aspergillus fumigatus
[9] = tested on: Aspergillus niger; test: Antifungal activity against Aspergillus niger after 3 to 4 days by serial dilution method; type: functional; conditions: for MIC: Aspergillus niger
[10] = tested on: Klebsiella pneumoniae; test: Antibacterial activity against Klebsiella pneumoniae MTCC 3384 after 24 hr by disk diffusion method; type: functional; conditions: for MIC: Klebsiella pneumoniae, MTCC 3384, 24 h
[11] = tested on: Penicillium chrysogenum; test: Antifungal activity against Penicillium chrysogenum after 3 to 4 days by serial dilution method; type: functional; conditions: for MIC: Penicillium chrysogenum
[12] = tested on: Bacillus subtilis; test: Antibacterial activity against Bacillus subtilis MTCC 297 after 24 hr by disk diffusion method; type: functional; conditions: for MIC: Bacillus subtilis, MTCC 297, 24 h
[13] = tested on: Enterococcus faecalis; test: Antibacterial activity against Enterococcus faecalis MTCC 3382 after 24 hr by disk diffusion method; type: functional; conditions: for MIC: Enterococcus faecalis, MTCC 3382, 24 h
[14] = tested on: Escherichia coli; test: Antibacterial activity against Escherichia coli MTCC 1089 after 24 hr by disk diffusion method; type: functional; conditions: for MIC: Escherichia coli, MTCC 1089, 24 h
[15] = tested on: Escherichia coli; test: Induction of Escherichia coli MTCC 1089 DNA cleavage at 25 ug after 2 hr by agarose gel electrophoresis
[16] = tested on: Aspergillus niger; test: Induction of Aspergillus niger DNA cleavage at 50 ug after 2 hr by agarose gel electrophoresis
[17] = tested on: Aspergillus niger; test: Induction of Aspergillus niger DNA cleavage at 25 ug after 2 hr by agarose gel electrophoresis

MIC [1] [µg/mL] | Activity [2] | Activity [3] | MIC [5] [µg/mL] | MIC [6] [µg/mL] | MIC [7] [µg/mL] | MIC [8] [µg/mL] | MIC [9] [µg/mL] | MIC [10] [µg/mL] | MIC [11] [µg/mL] | SMILES | inhibition zone (IZ) [1] [mm] | inhibition zone (IZ) [4] [mm] | inhibition zone (IZ) [5] [mm] | inhibition zone (IZ) [6] [mm] | inhibition zone (IZ) [7] [mm] | inhibition zone (IZ) [8] [mm] | inhibition zone (IZ) [9] [mm] | inhibition zone (IZ) [10] [mm] | inhibition zone (IZ) [11] [mm] | inhibition zone (IZ) [12] [mm] | also measured
6.25 (≈ 17.7 µM) | Active | Active | 6.25 (≈ 17.7 µM) | 6.25 (≈ 17.7 µM) | 6.25 (≈ 17.7 µM) | 6.25 (≈ 17.7 µM) | 6.25 (≈ 17.7 µM) | 6.25 (≈ 17.7 µM) | 6.25 (≈ 17.7 µM) | CCN(CC)c1cccc(OCc2cc(=O)oc3ccc(OC)cc23)c1 | 17 | 15 | 19 | 25 | 20 | 19 | 20 | 20 | 23 | 18 | MIC [12]: 6.25 µg/mL (≈ 17.7 µM); inhibition zone (IZ) [13]: 20 mm; MIC [13]: 6.25 µg/mL (≈ 17.7 µM); inhibition zone (IZ) [14]: 17 mm; MIC [14]: 12.5 µg/mL (≈ 35.4 µM); Activity [15]: Active; Activity [16]: Active
6.25 (≈ 18.4 µM) | Active | Active | 6.25 (≈ 18.4 µM) | 6.25 (≈ 18.4 µM) | 6.25 (≈ 18.4 µM) | 6.25 (≈ 18.4 µM) | 6.25 (≈ 18.4 µM) | 6.25 (≈ 18.4 µM) | 6.25 (≈ 18.4 µM) | COc1ccc2oc(=O)cc(COc3cccc(NC(C)=O)c3)c2c1 | 19 | 16 | 21 | 25 | 19 | 21 | 21 | 21 | 20 | 19 | MIC [4]: 12.5 µg/mL (≈ 36.8 µM); MIC [12]: 6.25 µg/mL (≈ 18.4 µM); inhibition zone (IZ) [13]: 20 mm; MIC [13]: 6.25 µg/mL (≈ 18.4 µM); inhibition zone (IZ) [14]: 17 mm; MIC [14]: 12.5 µg/mL (≈ 36.8 µM); Activity [15]: Active; Activity [16]: Active
6.25 (≈ 17.5 µM) | Active | Active | 6.25 (≈ 17.5 µM) | 6.25 (≈ 17.5 µM) | 6.25 (≈ 17.5 µM) | 6.25 (≈ 17.5 µM) | 6.25 (≈ 17.5 µM) | 6.25 (≈ 17.5 µM) | 6.25 (≈ 17.5 µM) | CCN(CC)c1cccc(OCc2cc(=O)oc3ccc(Cl)cc23)c1 | 18 | 16 | 21 | 25 | 21 | 22 | 22 | 19 | 23 | 20 | Activity [17]: Active; MIC [4]: 12.5 µg/mL (≈ 34.9 µM); MIC [12]: 6.25 µg/mL (≈ 17.5 µM); inhibition zone (IZ) [13]: 22 mm; MIC [13]: 6.25 µg/mL (≈ 17.5 µM); inhibition zone (IZ) [14]: 15 mm; MIC [14]: 12.5 µg/mL (≈ 34.9 µM); Activity [16]: Active
6.25 (≈ 18.2 µM) | Active | Active | 6.25 (≈ 18.2 µM) | 6.25 (≈ 18.2 µM) | 6.25 (≈ 18.2 µM) | 6.25 (≈ 18.2 µM) | 6.25 (≈ 18.2 µM) | 6.25 (≈ 18.2 µM) | 6.25 (≈ 18.2 µM) | CC(=O)Nc1cccc(OCc2cc(=O)oc3ccc(Cl)cc23)c1 | 20 | 16 | 22 | 23 | 21 | 22 | 22 | 19 | 23 | 20 | Activity [17]: Active; MIC [4]: 12.5 µg/mL (≈ 36.4 µM); MIC [12]: 6.25 µg/mL (≈ 18.2 µM); inhibition zone (IZ) [13]: 23 mm; MIC [13]: 6.25 µg/mL (≈ 18.2 µM); inhibition zone (IZ) [14]: 16 mm; MIC [14]: 12.5 µg/mL (≈ 36.4 µM); Activity [16]: Active
6.25 (≈ 12.6 µM) | Active | Active | 6.25 (≈ 12.6 µM) | 6.25 (≈ 12.6 µM) | 6.25 (≈ 12.6 µM) | 6.25 (≈ 12.6 µM) | 6.25 (≈ 12.6 µM) | 6.25 (≈ 12.6 µM) | 6.25 (≈ 12.6 µM) | O=c1cc(COc2cccc(OCc3cc(=O)oc4ccc(Cl)cc34)c2)c2cc(Cl)ccc2o1 | 19 | 16 | 22 | 22 | 20 | 22 | 24 | 18 | 20 | 19 | Activity [17]: Active; MIC [4]: 12.5 µg/mL (≈ 25.2 µM); MIC [12]: 6.25 µg/mL (≈ 12.6 µM); inhibition zone (IZ) [13]: 23 mm; MIC [13]: 6.25 µg/mL (≈ 12.6 µM); inhibition zone (IZ) [14]: 15 mm; MIC [14]: 12.5 µg/mL (≈ 25.2 µM); Activity [16]: Active
